Some test systems named below: A498 renal; SN12C renal; RXF 393 renal; SK-MEL-2 melanoma; SK-MEL-28 melanoma; SK-OV-3 ovarian; NCI-H23 lung; HOP-62 NSCLC; COLO 205 colon; HL-60(TB) leukemia.
What all share (assay): DTP human tumour cell line panel, 48 h

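Results reflect a 48-hour exposure of cells in 96-well plates to compound at five concentrations. GI50 is the concentration that inhibits growth by half. Definition used: TGI = concentration required for complete inhibition of growth.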 Where only a bound is given, the exact number is not on record here.

As to `NCCCNc1nc2ccccc2c2c(=O)c3cc(C(F)(F)F)ccc3sc12`, the GI50 is 1.73 µM in the assay on A498 renal; 1.73 µM in the assay with SN12C renal; 1.38 µM with RXF 393 renal; 1.93 µM in the assay with SK-MEL-2 melanoma; 1.81 µM in the assay with SK-MEL-28 melanoma. Also, the TGI in the assay on A498 renal was found to be 3.23 µM; in the assay on SN12C renal, 3.23 µM; in the assay on RXF 393 renal, 2.72 µM; in the assay on SK-MEL-2 melanoma it was 3.82 µM; in the assay with SK-MEL-28 melanoma it was 3.23 µM.
`CCC1=CC2CN3CCc4c([nH]c5ccccc45)C(C(=O)OC)(C2)C13` (stereo not drawn): the TGI was found to be 108 µM with A498 renal; 89.3 µM with SN12C renal; 78.7 µM in the assay with RXF 393 renal; 134 µM in the assay with SK-OV-3 ovarian; 100 µM in the assay with NCI-H23 lung; 114 µM in the assay with SK-MEL-2 melanoma. The concentration for total growth inhibition (TGI) with HOP-62 NSCLC stood at 86.1 µM; in the assay with SK-MEL-28 melanoma it was 98.4 µM; in the assay with COLO 205 colon, 80.6 µM; in the assay with HL-60(TB) leukemia, 125 µM.
As to `Cc1cc(C)nc(NS(=O)(=O)c2ccc(Nc3c4ccccc4nc4c(C(=O)NCCCN(CCO)CCO)cccc34)cc2)n1`, the total growth inhibition concentration (TGI) with A498 renal is more than 100 µM; in the assay on SN12C renal, more than 100 µM; in the assay with SK-OV-3 ovarian it was more than 100 µM; in the assay on NCI-H23 lung, more than 100 µM; in the assay on SK-MEL-2 melanoma it was 34.8 µM; in the assay on HOP-62 NSCLC it was 73.5 µM. Moreover, the TGI with SK-MEL-28 melanoma was determined as 31.2 µM; in the assay with COLO 205 colon it was 34.3 µM; in the assay on HL-60(TB) leukemia it was 38.6 µM.
As for `COc1cc(C2C(Cl)C(=O)N2NC(=O)c2ccccc2O)ccc1O` (stereo not drawn), the TGI in the assay on A498 renal, with SN12C renal, with RXF 393 renal, in the assay on SK-OV-3 ovarian, in the assay with NCI-H23 lung and in the assay with SK-MEL-2 melanoma was more than 100 µM in each case. In addition, the total growth inhibition concentration (TGI) in the assay on SK-MEL-28 melanoma and with HL-60(TB) leukemia was more than 100 µM throughout.
Take `O=C1CN2Cc3cc(N4CCOCC4)ccc3N=C2N1`: the total growth inhibition concentration (TGI) with A498 renal, with SN12C renal, with RXF 393 renal, in the assay on SK-OV-3 ovarian, in the assay with NCI-H23 lung and in the assay on SK-MEL-2 melanoma was more than 100 µM each time. Besides, the total growth inhibition concentration (TGI) in the assay on HOP-62 NSCLC, with SK-MEL-28 melanoma, with COLO 205 colon and with HL-60(TB) leukemia was more than 100 µM each time.
With `CC1(C23CC4CC(CC(C4)C2)C3)n2c(=O)n(-c3ccccc3)c(=O)n2C1(C)C12CC3CC(CC(C3)C1)C2` (stereo not drawn), the TGI with A498 renal, with SN12C renal, in the assay with SK-OV-3 ovarian, in the assay with NCI-H23 lung, in the assay with SK-MEL-2 melanoma and with HOP-62 NSCLC was more than 100 µM in each case. For the same compound, the concentration for total growth inhibition (TGI) in the assay with SK-MEL-28 melanoma, in the assay on COLO 205 colon and in the assay with HL-60(TB) leukemia was more than 100 µM each time.
`CON(C)C(C#N)=C(C#N)C#N`: the concentration for total growth inhibition (TGI) in the assay on A498 renal, with SN12C renal, in the assay with RXF 393 renal, in the assay on SK-OV-3 ovarian, in the assay with NCI-H23 lung and in the assay with SK-MEL-2 melanoma was more than 10 µM each time. Also, the total growth inhibition concentration (TGI) in the assay with HOP-62 NSCLC, in the assay with SK-MEL-28 melanoma, with COLO 205 colon and in the assay on HL-60(TB) leukemia was more than 10 µM in each case.
On to `COc1nc(SC)nc2c1cnn2C1OC(C(O)CO)C(OC)C1O` (stereo not drawn), for which the TGI in the assay on A498 renal, in the assay with SN12C renal, in the assay on RXF 393 renal, in the assay with SK-OV-3 ovarian, in the assay on NCI-H23 lung and in the assay on SK-MEL-2 melanoma was more than 100 µM in each case. Further, the concentration for total growth inhibition (TGI) with HOP-62 NSCLC, in the assay on SK-MEL-28 melanoma, in the assay on COLO 205 colon and in the assay on HL-60(TB) leukemia was more than 100 µM throughout.
On to `COCC1CCCN1c1ccc(/C=C(/C#N)C(N)=S)cc1` (stereo not drawn), for which the GI50 with A498 renal is more than 100 µM; with SN12C renal, 30.5 µM; in the assay on RXF 393 renal it was more than 100 µM; in the assay on SK-OV-3 ovarian it was more than 100 µM; with NCI-H23 lung, more than 100 µM; in the assay with SK-MEL-2 melanoma, more than 100 µM. The GI50 in the assay with HOP-62 NSCLC, in the assay with SK-MEL-28 melanoma, in the assay with COLO 205 colon and with HL-60(TB) leukemia was more than 100 µM throughout. Moreover, the TGI with A498 renal, with SN12C renal, in the assay on RXF 393 renal, with SK-OV-3 ovarian, in the assay on NCI-H23 lung and in the assay on SK-MEL-2 melanoma was more than 100 µM each time. The total growth inhibition concentration (TGI) in the assay on HOP-62 NSCLC, in the assay with SK-MEL-28 melanoma, in the assay on COLO 205 colon and in the assay on HL-60(TB) leukemia was more than 100 µM each time.
As for `CCOC(=O)c1c(C)c2c(n1C)CCc1cn[nH]c1-2`, the total growth inhibition concentration (TGI) with A498 renal, in the assay on SN12C renal, with RXF 393 renal, in the assay on SK-OV-3 ovarian, in the assay with NCI-H23 lung and with SK-MEL-2 melanoma was more than 100 µM throughout. Moreover, the TGI in the assay on HOP-62 NSCLC, with SK-MEL-28 melanoma, in the assay with COLO 205 colon and in the assay on HL-60(TB) leukemia was more than 100 µM throughout.
As to `CCCCC(C)C1CCC2(C)C=CC(=O)C(C)=C2C1O` (stereo not drawn), the total growth inhibition concentration (TGI) in the assay with A498 renal, in the assay with SN12C renal, with RXF 393 renal, in the assay on SK-OV-3 ovarian, in the assay with NCI-H23 lung and in the assay on SK-MEL-2 melanoma was more than 100 µM in each case. Further, the concentration for total growth inhibition (TGI) in the assay with HOP-62 NSCLC, in the assay on SK-MEL-28 melanoma, in the assay on COLO 205 colon and with HL-60(TB) leukemia was more than 100 µM in each case.
With `Cc1[nH]c(=O)nc(N/N=C/c2ccc(Cl)cc2)c1C(=O)NC(C)(CO)CO`, the total growth inhibition concentration (TGI) with A498 renal, in the assay with SN12C renal, with RXF 393 renal, with SK-OV-3 ovarian, with NCI-H23 lung and with SK-MEL-2 melanoma was more than 100 µM in each case. The concentration for total growth inhibition (TGI) in the assay with HOP-62 NSCLC, in the assay on SK-MEL-28 melanoma, in the assay on COLO 205 colon and with HL-60(TB) leukemia was more than 100 µM in each case.
In the case of `CCOC(=O)c1csc(NC(=O)CCN2CCCCC2)n1`, the TGI with A498 renal, in the assay with RXF 393 renal, in the assay with SK-OV-3 ovarian, with NCI-H23 lung, with SK-MEL-2 melanoma and with HOP-62 NSCLC was more than 100 µM each time. For the same compound, the total growth inhibition concentration (TGI) in the assay with SK-MEL-28 melanoma, in the assay with COLO 205 colon and with HL-60(TB) leukemia was more than 100 µM throughout.
Turning to `CN1C2CC(=O)CC1[C@H](O)[C@@H]2O`, the concentration for total growth inhibition (TGI) in the assay with SN12C renal, in the assay on RXF 393 renal, in the assay on NCI-H23 lung, with SK-MEL-2 melanoma, in the assay with HOP-62 NSCLC and in the assay with SK-MEL-28 melanoma was more than 100 µM in each case. Further, the TGI with COLO 205 colon and with HL-60(TB) leukemia was more than 100 µM throughout.

The term GI50 denotes the concentration giving 50% growth inhibition. What is called TGI is the concentration giving total growth inhibition. A higher TGI goes with lower sensitivity of the cells.

Source of the values: PubChem BioAssay (NCI).
